From patent publication US8778966B2, “Quinolinone derivatives as PARP and tank inhibitors” (Janssen Pharmaceutica, NV, priority 2007, dated 2014)

Key:
[1] = molecular target: T1, TANK-2 enzyme (Homo sapiens, UniProt Q9H2K2); assay: In vitro Scintillation Proximity Assay (SPA) for TANK-2 inhibitory activity; format: biochemical; settings: read-out: in vitro SPA assay TANK-2 pIC50 (converted)
T1 construct: made in house
T1 sequence (Q9H2K2 1-1166): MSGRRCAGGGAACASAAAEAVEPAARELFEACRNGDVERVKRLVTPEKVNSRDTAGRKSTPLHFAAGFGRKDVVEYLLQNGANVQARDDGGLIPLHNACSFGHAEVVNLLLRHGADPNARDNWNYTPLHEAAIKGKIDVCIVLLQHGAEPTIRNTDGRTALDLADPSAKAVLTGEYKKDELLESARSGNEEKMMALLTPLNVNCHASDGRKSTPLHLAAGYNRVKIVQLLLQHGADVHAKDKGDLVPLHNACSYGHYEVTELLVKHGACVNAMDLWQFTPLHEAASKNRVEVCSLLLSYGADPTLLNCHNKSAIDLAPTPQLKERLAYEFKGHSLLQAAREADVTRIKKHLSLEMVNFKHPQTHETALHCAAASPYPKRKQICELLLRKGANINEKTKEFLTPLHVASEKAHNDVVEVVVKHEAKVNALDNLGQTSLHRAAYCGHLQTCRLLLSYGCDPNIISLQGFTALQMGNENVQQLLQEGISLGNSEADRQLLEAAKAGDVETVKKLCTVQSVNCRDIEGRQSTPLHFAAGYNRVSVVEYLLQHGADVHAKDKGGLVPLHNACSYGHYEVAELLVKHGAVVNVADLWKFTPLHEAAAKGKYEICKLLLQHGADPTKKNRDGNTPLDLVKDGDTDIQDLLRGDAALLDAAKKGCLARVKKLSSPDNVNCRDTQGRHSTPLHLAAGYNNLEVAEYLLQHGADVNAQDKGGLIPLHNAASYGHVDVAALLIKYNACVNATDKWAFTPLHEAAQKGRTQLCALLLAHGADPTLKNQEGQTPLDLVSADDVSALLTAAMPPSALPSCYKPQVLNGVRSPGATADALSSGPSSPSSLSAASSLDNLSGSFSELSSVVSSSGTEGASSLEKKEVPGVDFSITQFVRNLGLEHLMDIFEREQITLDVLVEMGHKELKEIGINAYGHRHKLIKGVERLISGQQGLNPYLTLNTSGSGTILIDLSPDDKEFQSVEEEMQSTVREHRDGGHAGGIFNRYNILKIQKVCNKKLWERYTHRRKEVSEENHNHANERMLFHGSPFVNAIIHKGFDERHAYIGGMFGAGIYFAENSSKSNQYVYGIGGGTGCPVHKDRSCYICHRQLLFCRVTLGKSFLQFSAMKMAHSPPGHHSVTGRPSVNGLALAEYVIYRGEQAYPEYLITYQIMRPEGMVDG
In short: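 TANK-2 (8 μg/ml final) auto-poly(ADP-ribosyl)ation with [3H]-NAD+/NAD donor was run in Ni flash plates in Tris/HCl pH 7.4 buffer with DTT and MgCl2, 120 min at room temperature, then stopped with excess NAD and scintillation-counted. Blank-corrected cpm was expressed as % of enzyme control, and IC50 was linearly interpolated and reported as pIC50.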

[2] = system: PC3 cells; assay: EB1 Comet (microtubule disruption) assay; format: cell-based, human; settings: Homo sapiens, PC-3, 1 h, 1 hour treatment, read-out: EB1 pLAC (converted)
In short: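 PC3 human prostate cancer cells exposed to compound for 1 h at 37 °C (0.6% DMSO final), methanol-fixed, immunostained for Eb1 and imaged at 20×. Value is the lowest active concentration (LAC): the concentration at which Eb1 foci are absent in at least 50% of treated cells.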

`CCc1cc2ccc(C(C)(C#N)Cc3nc4ccccc4n3C)cc2[nH]c1=O` (centres unmarked) [Compound 338] showed an IC50 [1] of 501 nM and a minimal effective concentration [2] of 1 µM.
`CCc1cc2ccc(C(C)(C#N)Cc3cnc(Cl)nc3Cl)cc2[nH]c1=O` (centres unmarked) [Compound 306] gave an IC50 [1] of 126 nM and a minimal effective concentration [2] of 3.16 µM.
`CCc1cc2ccc(C(C)(C#N)Cc3cnc(OC)nc3Cl)cc2[nH]c1=O` (centres unmarked) [Compound 356] was tested, and the IC50 [1] was 79.4 nM and the minimal effective concentration [2] was 0.1 µM.
`CCc1cc2ccc(C(C)(C#N)Cc3nc(Cl)cc(N(C)C)n3)cc2[nH]c1=O` (centres unmarked) [Compound 359] showed an IC50 [1] of 100 nM and a minimal effective concentration [2] of 0.1 µM.
For `CCc1cc2ccc(C(C)(C#N)Cc3cccc(CO)n3)cc2[nH]c1=O` (centres unmarked) [Compound 345], the IC50 [1] was 501 nM.
In the case of `CCc1cc2ccc(C(C)(C#N)Cc3ccc(C)nc3)cc2[nH]c1=O` (centres unmarked) [Compound 327], the IC50 [1] is reported as 631 nM.
`CCc1cc2ccc([C@](C)(C#N)Cc3cccc(N(C)C)c3)cc2[nH]c1=O` (single isomer, unassigned) [Compound 259] showed an IC50 [1] of 200 nM.
`CCc1cc2ccc(C(C)(C#N)Cc3ccc4ccccc4n3)cc2[nH]c1=O` (centres unmarked) [Compound 336] showed an IC50 [1] of 100 nM and a minimal effective concentration [2] of 1 µM.
`CCc1cc2ccc([C@@](C)(C#N)Cc3cccc(N(C)C)c3)cc2[nH]c1=O` (single isomer, unassigned) [Compound 258] gave an IC50 [1] of 501 nM and a minimal effective concentration [2] of 0.316 µM.
`CCc1cc2ccc(C(C)(C#N)Cc3ncc(C)c(OC)c3C)cc2[nH]c1=O` (centres unmarked) [Compound 311] showed an IC50 [1] of 1260 nM and a minimal effective concentration [2] of 3.16 µM.
`CCc1cc2ccc(C(C)(C#N)Cc3nccc(OCCOC)n3)cc2[nH]c1=O` (centres unmarked) [Compound 369] gave an IC50 [1] of 631 nM and a minimal effective concentration [2] of 3.16 µM.
Work on `CCc1cc2ccc(C(C)(C#N)Cc3cc(Cl)nc(Cl)c3)cc2[nH]c1=O` (centres unmarked) [Compound 372] yielded an IC50 [1] of 126 nM and a minimal effective concentration [2] of 1 µM.
With `CCc1cc2ccc(C(C)(C#N)Cc3cccc(C)n3)cc2[nH]c1=O` (centres unmarked) [Compound 343] the IC50 [1] was 398 nM and the minimal effective concentration [2] was 3.16 µM.
Molecule `CCc1cc2ccc(C(C)(C#N)Cc3cccc(OC)n3)cc2[nH]c1=O` (centres unmarked) [Compound 353] has an IC50 [1] of 200 nM.
Molecule `CCc1cc2ccc([C@](C)(C#N)C[C@@H]3Cc4cc(C)ccc4O3)cc2[nH]c1=O` (single isomer, unassigned) [Compound 400] has an IC50 [1] of 501 nM.
`CCc1cc2ccc(C(C)(C#N)Cc3cccc(Cl)n3)cc2[nH]c1=O` (centres unmarked) [Compound 310] showed an IC50 [1] of 251 nM and a minimal effective concentration [2] of 1 µM.
In the case of `CCc1cc2ccc(C(C)(C#N)Cc3cccc(CN)c3)cc2[nH]c1=O` (centres unmarked) [Compound 290], the IC50 [1] is reported as 316 nM and the minimal effective concentration [2] is reported as 3.16 µM.
For `COc1cc(OC)nc(CC(C)(C#N)c2ccc3cc(C)c(=O)[nH]c3c2)n1` (centres unmarked) [Compound 308], the IC50 [1] was 3160 nM.
With `CCc1cc2cc(OC)c(C(C)(C#N)Cc3ccccc3)cc2[nH]c1=O` (centres unmarked) [Compound 294] the IC50 [1] was 158 nM.
In the case of `CCc1cc2ccc([C@@](C)(C#N)Cc3cccc(C#N)c3)cc2[nH]c1=O` (single isomer, unassigned) [Compound 268], the IC50 [1] is reported as 79.4 nM.
With `CCc1cc2ccc(C(C)(C#N)Cc3ccc(OC)nc3)cc2[nH]c1=O` (centres unmarked) [Compound 352] the IC50 [1] was 631 nM and the minimal effective concentration [2] was 1 µM.
For `CCc1c(Cl)c2ccc(C(C)(C#N)Cc3cccc(C#N)c3)cc2[nH]c1=O` (centres unmarked) [Compound 293], the IC50 [1] was 1000 nM and the minimal effective concentration [2] was 1 µM.
`CCc1cc2ccc(C(C)(C#N)Cc3cccc(C#C[Si](C)(C)C)n3)cc2[nH]c1=O` (centres unmarked) [Compound 210] was tested, and the IC50 [1] was 3980 nM and the minimal effective concentration [2] was 0.316 µM.
With `CCc1cc2ccc(C(C)(C#N)Cc3cc(OC)nc(OC)n3)cc2[nH]c1=O` (centres unmarked) [Compound 358] the IC50 [1] was 100 nM.
With `CCc1cc2ccc(C(C)(C#N)CNCc3cccc(C#N)c3)cc2[nH]c1=O` (centres unmarked) [Compound 301] the IC50 [1] was 79.4 nM and the minimal effective concentration [2] was 3.16 µM.
In the case of `CCc1cc2ccc(C(C)(C#N)Cc3nccn3CC)cc2[nH]c1=O` (centres unmarked) [Compound 337], the IC50 [1] is reported as 631 nM and the minimal effective concentration [2] is reported as 1 µM.
In the case of `CCC[C@](C#N)(Cc1ccccc1)c1ccc2cc(CC)c(=O)[nH]c2c1` (single isomer, unassigned) [Compound 264], the IC50 [1] is reported as 2510 nM.
Molecule `CCc1cc2ccc(C(C)(C#N)Cc3cccc(CNS(C)(=O)=O)c3)cc2[nH]c1=O` (centres unmarked) [Compound 170] has an IC50 [1] of 794 nM and a minimal effective concentration [2] of 3.16 µM.
Work on `CCc1cc2ccc(C(C)(C#N)CC3CCc4ccccc4O3)cc2[nH]c1=O` (centres unmarked) [Compound 399] yielded an IC50 [1] of 100 nM and a minimal effective concentration [2] of 0.316 µM.
`CCc1cc2ccc(C(C)(C#N)Cc3nc(Cl)cc(OCCOC)n3)cc2[nH]c1=O` (centres unmarked) [Compound 370] gave an IC50 [1] of 251 nM and a minimal effective concentration [2] of 1 µM.
Molecule `CCc1cc2ccc([C@](C)(C#N)[C@H](C)c3ccccc3)cc2[nH]c1=O` [Compound 200] has an IC50 [1] of 1260 nM and a minimal effective concentration [2] of 0.316 µM.
With `CCc1cc2ccc([C@](C)(C#N)Cc3cccc(C#N)c3)cc2[nH]c1=O` (single isomer, unassigned) [Compound 269] the IC50 [1] was 158 nM and the minimal effective concentration [2] was 0.1 µM.
`CCc1cc2ccc(C(C)(C#N)Cc3cnc(OC)nc3OC)cc2[nH]c1=O` (centres unmarked) [Compound 357] showed an IC50 [1] of 79.4 nM and a minimal effective concentration [2] of 0.316 µM.
In the case of `CCc1cc2ccc(C(C)(C#N)Cc3cc(OCCOC)nc(C)n3)cc2[nH]c1=O` (centres unmarked) [Compound 363], the IC50 [1] is reported as 158 nM and the minimal effective concentration [2] is reported as 1 µM.
`CCc1cc2ccc(C(C)(C#N)Cc3cccc(OCCOC)n3)cc2[nH]c1=O` (centres unmarked) [Compound 219] was tested, and the IC50 [1] was 398 nM and the minimal effective concentration [2] was 1 µM.
`CCc1cc2ccc(C(C)(C#N)Cc3cccc(C#N)n3)cc2[nH]c1=O` (centres unmarked) [Compound 329] was tested, and the IC50 [1] was 316 nM and the minimal effective concentration [2] was 0.316 µM.
For `CCc1cc2ccc(C(C)(C#N)Cc3nccc(OC)n3)cc2[nH]c1=O` (centres unmarked) [Compound 360], the IC50 [1] was 126 nM and the minimal effective concentration [2] was 1 µM.
Work on `CCc1cc2ccc(C(C)(C#N)Cc3cccc(/C=C/S(C)(=O)=O)c3)cc2[nH]c1=O` (centres unmarked) [Compound 292] yielded an IC50 [1] of 126 nM and a minimal effective concentration [2] of 0.1 µM.
Molecule `CCC[C@@](C#N)(Cc1ccccc1)c1ccc2cc(CC)c(=O)[nH]c2c1` (single isomer, unassigned) [Compound 263] has an IC50 [1] of 2000 nM and a minimal effective concentration [2] of 3.16 µM.
Molecule `CCc1cc2ccc(C(C)(C#N)CCOc3cccc(C(F)(F)F)c3)cc2[nH]c1=O` (centres unmarked) [Compound 274] has an IC50 [1] of 2510 nM.
For `CCc1cc2ccc(C(C)(C#N)Cc3cc(OC)ccn3)cc2[nH]c1=O` (centres unmarked) [Compound 373], the IC50 [1] was 501 nM.
For `CCc1cc2ccc(C(C)(C#N)Cc3nc(C)cc(C)n3)cc2[nH]c1=O` (centres unmarked) [Compound 368], the IC50 [1] was 158 nM and the minimal effective concentration [2] was 1 µM.
Work on `CCc1cc2ccc(C(C)(C#N)Cc3cc(OC)nc(C)n3)cc2[nH]c1=O` (centres unmarked) [Compound 366] yielded an IC50 [1] of 158 nM and a minimal effective concentration [2] of under 0.0316 µM.
Molecule `CCOc1cc(OCC)nc(CC(C)(C#N)c2ccc3cc(CC)c(=O)[nH]c3c2)n1` (centres unmarked) [Compound 309] has an IC50 [1] of 2000 nM and a minimal effective concentration [2] of 3.16 µM.
For `CCc1cc2ccc(C(C)(C#N)Cc3cccc(Br)n3)cc2[nH]c1=O` (centres unmarked) [Compound 344], the IC50 [1] was 316 nM and the minimal effective concentration [2] was 0.316 µM.
`CCc1cc2ccc(C(C)(C#N)Cc3cc(OCCOC)nc(Cl)n3)cc2[nH]c1=O` (centres unmarked) [Compound 367] gave an IC50 [1] of 158 nM and a minimal effective concentration [2] of 1 µM.
With `CCc1cc2ccc(C(C)(C#N)Cc3cccc(OCCO)c3)cc2[nH]c1=O` (centres unmarked) [Compound 262] the IC50 [1] was 631 nM.
`CCc1cc2ccc(C(C)(C#N)Cc3cccc(C#CCOC)c3)cc2[nH]c1=O` (centres unmarked) [Compound 297] was tested, and the IC50 [1] was 1580 nM and the minimal effective concentration [2] was 0.1 µM.
For `CCc1cc2ccc(C(C)(C#N)Cc3cccc(OC[C@@H](O)CO)c3)cc2[nH]c1=O` (some centres unmarked) [Compound 56], the IC50 [1] was 1580 nM and the minimal effective concentration [2] was 3.16 µM.
Work on `CCCn1ccnc1CC(C)(C#N)c1ccc2cc(CC)c(=O)[nH]c2c1` (centres unmarked) [Compound 335] yielded an IC50 [1] of 501 nM and a minimal effective concentration [2] of 10 µM.
`CCc1cc2ccc(C(C)(C#N)Cc3cccc(C#CCN(C)C)c3)cc2[nH]c1=O` (centres unmarked) [Compound 298] was tested, and the IC50 [1] was 1580 nM and the minimal effective concentration [2] was 1 µM.
